{"source": "ChEMBL document CHEMBL2016435", "about": "(Bioorg Med Chem Lett, 2012)", "key": {"[1]": {"target": "3',5'-cyclic-AMP phosphodiesterase 4B (Homo sapiens, UniProt Q07343)", "sequence (Q07343 whole entry, the tested form may be a part)": "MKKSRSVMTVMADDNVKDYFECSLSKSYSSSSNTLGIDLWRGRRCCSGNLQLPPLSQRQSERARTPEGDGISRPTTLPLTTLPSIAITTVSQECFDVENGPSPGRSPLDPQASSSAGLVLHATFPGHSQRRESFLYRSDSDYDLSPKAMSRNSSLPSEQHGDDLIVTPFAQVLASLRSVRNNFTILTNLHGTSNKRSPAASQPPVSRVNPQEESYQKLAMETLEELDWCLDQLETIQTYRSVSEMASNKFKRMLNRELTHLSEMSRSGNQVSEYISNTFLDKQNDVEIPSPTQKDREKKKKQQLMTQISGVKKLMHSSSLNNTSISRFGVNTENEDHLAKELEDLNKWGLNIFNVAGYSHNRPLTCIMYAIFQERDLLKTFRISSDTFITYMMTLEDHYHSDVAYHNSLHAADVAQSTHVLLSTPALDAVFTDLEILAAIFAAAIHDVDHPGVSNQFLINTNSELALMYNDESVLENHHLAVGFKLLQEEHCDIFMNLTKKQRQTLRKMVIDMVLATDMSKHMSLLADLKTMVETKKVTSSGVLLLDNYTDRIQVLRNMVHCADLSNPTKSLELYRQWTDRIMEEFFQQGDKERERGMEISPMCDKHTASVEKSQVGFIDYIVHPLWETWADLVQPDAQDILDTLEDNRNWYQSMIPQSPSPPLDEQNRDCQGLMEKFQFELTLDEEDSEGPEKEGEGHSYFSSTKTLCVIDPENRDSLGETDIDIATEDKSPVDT", "assay": "Inhibition of human PDE4B2 catalytic domain and UCR2 (92 to 521) expressed in Escherichia coli BL21 using [3H]-cAMP/[3H]-cGMP after 15 mins by liquid scintillation counting"}, "[2]": {"target": "cGMP-specific 3',5'-cyclic phosphodiesterase (Homo sapiens, UniProt O76074)", "assay": "Inhibition of human PDE5A1 catalytic domain (535 to 860) expressed in Escherichia coli BL21 using [3H]-cAMP/[3H]-cGMP after 15 mins by liquid scintillation counting"}, "[3]": {"target": "High affinity cGMP-specific 3',5'-cyclic phosphodiesterase 9A (Homo sapiens, UniProt O76083)", "sequence (O76083 whole entry, the tested form may be a part)": "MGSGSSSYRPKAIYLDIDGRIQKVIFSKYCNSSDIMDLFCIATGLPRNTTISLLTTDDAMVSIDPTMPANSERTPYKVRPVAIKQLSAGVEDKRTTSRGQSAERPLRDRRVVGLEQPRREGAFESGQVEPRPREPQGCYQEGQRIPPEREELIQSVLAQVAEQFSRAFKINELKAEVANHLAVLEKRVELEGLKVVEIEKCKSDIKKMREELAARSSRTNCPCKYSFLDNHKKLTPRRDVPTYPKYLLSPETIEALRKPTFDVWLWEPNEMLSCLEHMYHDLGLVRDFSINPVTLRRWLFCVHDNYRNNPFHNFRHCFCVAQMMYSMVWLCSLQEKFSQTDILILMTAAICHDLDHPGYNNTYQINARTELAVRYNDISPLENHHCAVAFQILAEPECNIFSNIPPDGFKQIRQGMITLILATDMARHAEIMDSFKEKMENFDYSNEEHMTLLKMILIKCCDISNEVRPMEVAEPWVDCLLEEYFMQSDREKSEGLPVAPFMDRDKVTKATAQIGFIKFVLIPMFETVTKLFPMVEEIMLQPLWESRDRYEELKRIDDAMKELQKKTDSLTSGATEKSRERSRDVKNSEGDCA", "assay": "Inhibition of human PDE9A2 catalytic domain (181 to 506) expressed in Escherichia coli BL21 using [3H]-cAMP/[3H]-cGMP after 15 mins by liquid scintillation counting"}, "[4]": {"target": "3',5'-cyclic-AMP phosphodiesterase 4D (Homo sapiens, UniProt Q08499)", "sequence (Q08499 whole entry, the tested form may be a part)": "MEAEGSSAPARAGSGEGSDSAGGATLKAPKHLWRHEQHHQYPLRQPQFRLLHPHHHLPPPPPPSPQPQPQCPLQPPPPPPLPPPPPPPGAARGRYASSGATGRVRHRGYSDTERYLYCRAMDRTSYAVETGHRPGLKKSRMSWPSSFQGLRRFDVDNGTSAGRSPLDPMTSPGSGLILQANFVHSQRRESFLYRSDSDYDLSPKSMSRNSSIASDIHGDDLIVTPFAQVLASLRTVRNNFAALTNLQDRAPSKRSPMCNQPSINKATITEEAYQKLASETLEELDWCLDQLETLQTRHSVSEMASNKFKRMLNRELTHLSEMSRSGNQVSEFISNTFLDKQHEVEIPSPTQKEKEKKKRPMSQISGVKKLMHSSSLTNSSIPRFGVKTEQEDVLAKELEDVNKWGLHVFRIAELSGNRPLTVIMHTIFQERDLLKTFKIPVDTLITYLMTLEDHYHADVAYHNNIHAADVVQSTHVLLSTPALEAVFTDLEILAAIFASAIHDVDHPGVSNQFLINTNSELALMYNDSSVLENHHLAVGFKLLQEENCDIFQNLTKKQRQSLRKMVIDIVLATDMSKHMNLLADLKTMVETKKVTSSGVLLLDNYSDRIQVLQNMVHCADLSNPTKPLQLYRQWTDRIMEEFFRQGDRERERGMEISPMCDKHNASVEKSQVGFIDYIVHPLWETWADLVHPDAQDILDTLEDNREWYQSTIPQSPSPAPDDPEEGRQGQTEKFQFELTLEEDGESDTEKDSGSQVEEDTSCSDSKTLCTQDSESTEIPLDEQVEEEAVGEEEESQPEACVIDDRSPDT", "assay": "Inhibition of human PDE4D2 catalytic domain (86 to 413) expressed in Escherichia coli BL21 using [3H]-cAMP/[3H]-cGMP after 15 mins by liquid scintillation counting"}}, "data": [{"compound": "Oc1cc(O)cc(-c2cc3ccc(O)cc3o2)c1", "note": "[MORACIN M]", "values": [{"measurement": "IC50", "setting": "[1]", "value": 4.5, "unit": "µM"}, {"measurement": "IC50", "setting": "[2]", "value": "> 40", "unit": "µM"}, {"measurement": "IC50", "setting": "[3]", "value": "> 100", "unit": "µM"}]}, {"compound": "CC(C)=CCc1c(O)cc(-c2cc3ccc(O)cc3o2)cc1O", "note": "[MORACIN C]", "values": [{"measurement": "IC50", "setting": "[4]", "value": 26, "unit": "µM"}, {"measurement": "IC50", "setting": "[1]", "value": 18.1, "unit": "µM"}, {"measurement": "IC50", "setting": "[2]", "value": "> 50", "unit": "µM"}, {"measurement": "IC50", "setting": "[3]", "value": "> 100", "unit": "µM"}]}]}
